Assay results: article PMC8049054, “Systematic Assessment of Fragment Identification for Multitarget Drug Design” (Chemmedchem, 2021)

Target: T1, leukotriene A4 hydrolase (LTA4H) (Homo sapiens, UniProt P09960)
T1 construct: made in house; host or cells: E. coli BL21 (DE3)
T1 sequence (P09960 1-611): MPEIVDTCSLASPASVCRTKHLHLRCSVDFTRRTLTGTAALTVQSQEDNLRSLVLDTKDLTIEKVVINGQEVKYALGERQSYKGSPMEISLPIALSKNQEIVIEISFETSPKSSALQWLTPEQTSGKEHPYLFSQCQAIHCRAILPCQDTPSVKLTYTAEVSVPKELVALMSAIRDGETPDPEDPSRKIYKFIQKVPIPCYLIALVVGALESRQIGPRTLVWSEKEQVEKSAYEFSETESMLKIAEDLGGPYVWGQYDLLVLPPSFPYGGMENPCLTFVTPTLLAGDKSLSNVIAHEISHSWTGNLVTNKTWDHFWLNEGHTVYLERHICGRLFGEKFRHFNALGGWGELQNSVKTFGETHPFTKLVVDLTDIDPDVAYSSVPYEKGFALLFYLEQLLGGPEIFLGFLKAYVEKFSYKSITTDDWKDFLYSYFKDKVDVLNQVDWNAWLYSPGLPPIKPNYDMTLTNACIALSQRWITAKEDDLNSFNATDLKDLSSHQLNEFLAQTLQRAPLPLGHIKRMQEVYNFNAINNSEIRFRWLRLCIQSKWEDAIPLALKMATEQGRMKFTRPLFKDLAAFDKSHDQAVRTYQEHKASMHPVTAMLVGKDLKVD
Assay: Differential scanning fluorimetry (DSF) screen on LTA4H
Assay type: binding
Conditions: 500 μM fragment, mean of duplicates
Text: For the primary screen of this fragment library, we employed differential scanning fluorimetry (DSF, also known as thermal shift). DSF is generally applicable to a large panel of protein targets and provides a robust, low‐cost screening technology for fragment‐based approaches. ^[20] All five proteins of our interest are soluble and were recombinantly expressed in Escherichia coli. We performed an initial fragment screen on all five targets by DSF. The use of a uniform screening method for all targets ensured consistent data and provided the opportunity to identify false positive hits which interfered with the screening technology. The conditions of the DSF assay were optimized for the desired screening and validated with reference compounds (Table S1 in the Supporting Information). Compounds causing a positive thermal shift ΔT m≥1.0 °C were considered as active.
DSF measurement of the PDFL (single concentration of 500 μM, duplicates, 96‐well format) on the five proteins retrieved 19 fragment hits on sEH, 28 on LTA4H, 12 on 5‐LOX, 16 on RXRα, and 14 on FXR, respectively. Melting point distributions of the screening library for all five targets are depicted in Figure 2. Amongst the hits, three compounds (Table S2) gave a positive signal on all five proteins likely qualifying them as pan assay interference compounds (PAINS). ^[21] Fragments binding to multiple targets (Scheme 1) were identified for seven out of ten target combinations (Figure 2, Table 1). Among them, fragments 4, 6, 7, and 9 match previously identified privileged scaffolds for fatty acid mimetics. ^[14] […] Active ligands containing N‐phenylbenzamide 6 and the N‐phenylbenzylamine 7 have been described for four of the protein targets. Furthermore, indole, which has been characterized as a privileged heterocycle for fatty acid mimetics, ^[14] is present in fragments 5 and 10. Dual 5‐LOX/RXR ligand 1 was present in 5‐LOX inhibitors, while dual FXR/LTA4H modulator 3 is found among known FXR ligands. Fragments 2 (sEH/5‐LOX) and 8 (LTA4H/RXR) are novel scaffolds not appearing in known ligands of any of the five targets.
Figure S3: SDS page of the purified proteins (proteins RXRα and FXR after TEV cleavage) using a 14% polyacrylamide gel, which was stained with coomassi. Precision Plus Protein™ Unstained Protein Standard s (Bio-Rad Laboratories, Inc. ) was used […]
All experiments were performed as duplicates using MicroAmp fast 96 -well plates. Each plate contained 80 different compound wells and 16 DMSO control wells. First 0.8 µl of a 25 mM Preswick Library Fragment dilution in DMSO or pure DMSO were placed in each of the well (final concentration 500 µM). Then 39.2 µl of the master mi x (containing protein, Triton x -100, SYPRO® Orange Protein Gel Stain and buffer that corresponds to the tested protein) were added.
Table S4: Final concentrations in DSF experiments: […]
The measurements were performed using a iCycler iQ™ Single -Color Real Time PCR device with a heat rate of 1 °C per min, an excitation wavelength of 490 nm and an emission wavelength of 570 nm. The first derivation calculated by MyiQ Op tical Software 1.0 was analyzed using Microsoft Office Excel 2013 by comparing the maxima. A shift of 1 °C (in case of 5 -LOX 0.9°C) or more compared to the DMSO control were assumed as potentially binding of the fragment.
(1 picture or pasted object on this page, not shown here)

Row | Structure (SMILES) | DSF/ΔT m LTA4H
1 | c1ccc(N2CCNCC2)nc1 [Compound 1] | −0.5±0.0 °C
2 | Cc1cc(=O)n(-c2ccc(C)c(C)c2)[nH]1 [Compound 2] | −0.1±2.1 °C
3 | CCCCOc1cc(C(=O)OC)ccc1N [Compound 3] | 2.5±0.0 °C
4 | Cc1ccccc1C(=O)Nc1ccccc1 [Compound 6] | 1.4±1.4 °C
5 | CCN(Cc1ccccc1)c1ccccc1 [Compound 7] | 0.5±0.0 °C

Second part, the molecule after the results:

Row | DSF/ΔT m LTA4H | Structure (SMILES)
6 | 1.5±0.0 °C | Oc1ccc(Cc2ccccc2)cc1 [Compound 4]
7 | 1.7±0.0 °C | Oc1ccc2cc[nH]c2c1 [Compound 5]
8 | 1.5±0.0 °C | Clc1ccc2c(c1)Nc1ccccc1CC2 [Compound 8]
9 | 0.7±0.0 °C | Oc1ccc(-c2ccc(F)cc2F)cc1 [Compound 9]
10 | 2.4±0.0 °C | Fc1ccc(-c2c[nH]c3ccccc23)cc1 [Compound 10]
